Biological target: CCR8 (Homo sapiens, UniProt P51685)
Assay: Tango assay (Tango-CCR8-Gal4-CHO-K1 cells, CCL1-stimulated, ONE-Glo luminescence)
Conditions: Tango Assay IC50, Inhibition of CCR8 Tango cell in vitro

Chain of CCR8 (P51685 whole entry, the tested form may be a part): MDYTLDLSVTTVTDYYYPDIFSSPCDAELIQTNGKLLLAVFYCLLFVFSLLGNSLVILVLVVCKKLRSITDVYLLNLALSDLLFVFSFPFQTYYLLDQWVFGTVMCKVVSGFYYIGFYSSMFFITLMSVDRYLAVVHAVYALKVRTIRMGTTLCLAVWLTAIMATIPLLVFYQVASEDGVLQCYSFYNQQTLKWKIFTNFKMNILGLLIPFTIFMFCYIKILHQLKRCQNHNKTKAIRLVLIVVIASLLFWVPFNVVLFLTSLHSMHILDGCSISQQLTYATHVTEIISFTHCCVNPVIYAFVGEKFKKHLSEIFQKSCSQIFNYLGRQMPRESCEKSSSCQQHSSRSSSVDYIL

Structure (SMILES) | IC50 [nM]
Cc1ccccc1C(=O)Nc1ccc(S(=O)(=O)NC(C)C2CC3CCC2CC3)c2ccccc12 (centres unmarked) [Compound 77, N-(4-(N-(1-(bicyclo[2.2.2]octan-2-yl)ethyl)sulfamoyl)naph-thalen-1-yl)-2-methylbenzamide] | 0.4
CC(NS(=O)(=O)c1ccc2[nH]cnc2c1)C1CCCCC1 (centres unmarked) [Compound 78, N-(1-cyclohexylethyl)-1H-benzo[d]imidazole-5-sulfonamide] | > 10000
CC(NS(=O)(=O)c1ccc2[nH]ncc2c1)C1CCCCC1 (centres unmarked) [Compound 79, N-(1-cyclohexylethyl)-1H-indazole-5-sulfonamide] | > 1000
CC(NS(=O)(=O)c1ccc2[nH]c(=O)[nH]c2c1)C1CCCCC1 (centres unmarked) [Compound 80, N-(1-cyclohexylethyl)-2-oxo-2,3-dihydro-1H-benzo[d]imidazole-5-sulfonamide] | > 10000
Cc1ccccc1C(=O)Nc1ccc(S(=O)(=O)NC(C)C(C)C)c2ccccc12 (centres unmarked) [Compound 81, 2-methyl-N-(4-(N-(3-methylbutan-2-yl)sulfamoyl)naphthalen-1-yl)benzamide] | 142
Cc1ccccc1C(=O)Nc1ccc(S(=O)(=O)NC(C)C(C)(C)C)c2ccccc12 (centres unmarked) [Compound 82, N-(4-(N-(3,3-dimethylbutan-2-yl)sulfamoyl)naphthalen-1-yl)-2-methylbenzamide] | 33
Cc1ccccc1C(=O)Nc1ccc(S(=O)(=O)NC(C)C(=O)N2CCC(C)CC2)c2ccccc12 (centres unmarked) [Compound 83, 2-methyl-N-(4-(N-(1-(4-methylpiperidin-1-yl)-1-oxopropan-2-yl)sulfamoyl)naphthalen-1-yl)benzamide] | > 10000
Cc1ccccc1C(=O)Nc1ccc(S(=O)(=O)NC(C)C23CC4CC(CC(C4)C2)C3)c2ccccc12 (centres unmarked) [Compound 84, N-(4-(N-(1-((3r,5r,7r)-adamantan-1-yl)ethyl)sulfamoyl)naph-thalen-1-yl)-2-methylbenzamide] | 0.2
Cc1ccccc1C(=O)Nc1ccc(S(=O)(=O)NC2CCc3nc(N)sc3C2)c2ccccc12 (centres unmarked) [Compound 85, N-(4-(N-(2-amino-4,5,6,7-tetrahydrobenzo[d]thia-zol-6-yl)sulfamoyl)naphthalen-1-yl)-2-methylbenzamide] | 351
CC(=O)N1CCOC(C(C)NS(=O)(=O)c2ccc(NC(=O)c3ccccc3C)c3ccccc23)C1 (centres unmarked) [Compound 86, N-(4-(N-(1-(4-acetylmorpholin-2-yl)ethyl)sulfamoyl)naph-thalen-1-yl)-2-methylbenzamide] | 2300
CC(=O)NC1CCc2cc(S(=O)(=O)NC(C)C3CCCCC3)ccc21 (centres unmarked) [Compound 87, N-(5-(N-(1-cyclohexylethyl)sulfam-oyl)-2,3-dihydro-1H-inden-1-yl)acetamide] | > 10000
CC(NS(=O)(=O)c1ccc2c(c1)CCC2NC(=O)c1ccccc1)C1CCCCC1 (centres unmarked) [Compound 88, N-(5-(N-(1-cyclohexylethyl)sulfam-oyl)-2,3-dihydro-1H-inden-1-yl)benzamide] | 1100
Cc1ccccc1C(=O)Nc1ccc(S(=O)(=O)NC2CCC23CCN(C(=O)OC(C)(C)C)CC3)c2ccccc12 (centres unmarked) [Compound 89, tert-butyl 1-(4-(2-methylbenzamido)naph-thalene-1-sulfonamido)-7-azaspiro[3.5]nonane-7-carboxylate] | 620
Cc1ccccc1C(=O)Nc1ccc(S(=O)(=O)NC2CCC23CCNCC3)c2ccccc12 (centres unmarked) [Compound 90, N-(4-(N-(7-azaspiro[3.5]nonan-1-yl)sulfamoyl)naphthalen-1-yl)-2-methylbenzamide] | > 10000
CCCN1CCN(c2cc(NS(=O)(=O)c3ccc(NC(=O)c4ccccc4C)c4ccccc34)ccc2C(=O)O)CC1 [Compound 91, 4-(4-(2-methylbenzamido)naph-thalene-1-sulfonamido)-2-(4-propylpiperazin-1-yl)benzoic acid] | > 10000
CCCN1CCN(c2c(F)cccc2NS(=O)(=O)c2ccc(NC(=O)c3ccccc3C)c3ccccc23)CC1 [Compound 92, N-(4-(N-(3-fluoro-2-(4-propylpiperazin-1-yl)phenyl)sulfamoyl)naphthalen-1-yl)-2-methylbenzamide] | > 10000
CCCN1CCN(c2ccc(C)c(NS(=O)(=O)c3ccc(NC(=O)c4ccccc4C)c4ccccc34)c2)CC1 [Compound 93, 2-methyl-N-(4-(N-(2-methyl-5-(4-propylpiperazin-1-yl)phenyl)sulfamoyl)naphthalen-1-yl)benzamide] | > 10000
CCCN1CCN(c2ccc(F)c(NS(=O)(=O)c3ccc(NC(=O)c4ccccc4C)c4ccccc34)c2)CC1 [Compound 95, N-(4-(N-(2-fluoro-5-(4-propylpiperazin-1-yl)phenyl)sulfamoyl)naphthalen-1-yl)-2-methylbenzamide] | > 10000
Cc1ccccc1C(=O)Nc1ccc(S(=O)(=O)Nc2ccc3c(c2)C(N(C)C(=O)CN(C)C)CCC3)c2ccccc12 (centres unmarked) [Compound 97, N-(4-(N-(8-(2-(dimethylamino)-N-methylacetamido)-5,6,7,8-tetrahydronaphthalen-2-yl)sulfamoyl)naphthalen-1-yl)-2-methylbenzamide] | > 10000

Structure (SMILES) | IC50 [nM]
Cc1ccccc1C(=O)Nc1ccc(S(=O)(=O)Nc2ccc3c(c2)C(N(C)C(=O)CN(C)C)CC3)c2ccccc12 (centres unmarked) [Compound 98, N-(4-(N-(3-(2-(dimethylamino)-N-methylacetamido)-2,3-dihydro-1H-inden-5-yl)sulfamoyl)naphthalen-1-yl)-2-methylbenzamide] | > 10000
Cc1ccccc1C(=O)Nc1ccc(S(=O)(=O)Nc2ccc3c(c2)C(N(C)CCN(C)C)CCC3)c2ccccc12 (centres unmarked) [Compound 99, N-(4-(N-(8-((2-(dimethylamino)ethyl)(methyl)amino)-5,6,7,8-tetrahydronaphthalen-2-yl)sulfamoyl)naphthalen-1-yl)-2-methylbenzamide] | > 10000
CN1CCCN(C(=O)C23CC(NS(=O)(=O)c4ccc5ccccc5c4)(C2)C3)CC1 [Compound 100, N-(3-(4-methyl-1,4-diazepane-1-carbonyl)bicyclo[1.1.1]pentan-1-yl)naphthalene-2-sulfonamide] | > 10000
CC(C)(C)OC(=O)N1CCC(NS(=O)(=O)c2ccc(-c3nc4ccccc4[nH]3)cc2)CC1 [Compound 102, tert-butyl 4-(4-(1H-benzo[d]imidazol-2-yl)phenylsulfonamido) piperidine-1-carboxylate] | > 10000
CN1CCN(C(=O)N2CCC(NS(=O)(=O)c3ccc(-c4nc5ccccc5[nH]4)cc3)CC2)CC1 [Compound 103, 4-(1H-benzo[d]imidazol-2-yl)-N-(1-(4-methylpiperazine-1-carbonyl)piperidin-4-yl)benzenesulfonamide] | 310
C[C@H](N)C(=O)N1CCC(NS(=O)(=O)c2ccc(-c3nc4ccccc4[nH]3)cc2)CC1 [Compound 104, (S)-N-(1-(2-aminopropanoyl)piperi-din-4-yl)-4-(1H-benzo[d]imidazol-2-yl)benzenesulfonamide] | 258
CCCC(=O)N1CCC(NS(=O)(=O)c2ccc(-c3nc4ccccc4[nH]3)cc2)CC1 [Compound 106, 4-(1H-benzo[d]imidazol-2-yl)-N-(1-butyrylpiperidin-4-yl)benzenesulfonamide] | 1140
CCCC(=O)N1CCC(NS(=O)(=O)c2ccc(-c3nc4ccccc4[nH]3)c3ccccc23)CC1 [Compound 107, 4-(1H-benzo[d]imidazol-2-yl)-N-(1-butyrylpiperidin-4-yl)naphthalene-1-sulfonamide] | 913
O=S(=O)(NC1CCCCC1)c1ccc(-c2nc3ccccc3[nH]2)cc1 [Compound 108, 4-(1H-benzo[d]imidazol-2-yl)-N-cyclohexylbenzenesulfon-amide] | > 10000
O=S(=O)(NC1CCOCC1)c1ccc(-c2nc3ccccc3[nH]2)cc1 [Compound 109, 4-(1H-benzo[d]imidazol-2-yl)-N-(tetrahydro-2H-pyran-4-yl)benzenesulfonamide] | > 10000
Cc1ccccc1NC(=O)c1ccc(S(=O)(=O)NC(C)C2CCCCC2)cc1 (centres unmarked) [Compound 111, 4-(N-(1-cyclohexylethyl)sulfam-oyl)-N-(o-tolyl)benzamide] | > 10000
Cc1ccccc1NC(=O)c1ccc(S(=O)(=O)N[C@H](C)C2CCN(C(=O)OC(C)(C)C)CC2)cc1C [Compound 112, (R)-tert-butyl 4-(1-(3-methyl-4-(o-tolylcarbamoyl)phenyl-sulfonamido)ethyl)piperi-dine-1-carboxylate] | > 10000
Cc1ccccc1NC(=O)c1ccc(S(=O)(=O)N[C@H](C)C2CCNCC2)cc1C [Compound 113A, (R)-2-methyl-4-(N-(1-(piperidin-4-yl)ethyl)sulfamoyl)-N-(o-tolyl)benzamide] | 388
CCCC(=O)N1CCC(NS(=O)(=O)c2ccc(Nc3nccc4ccccc34)c3ccccc23)CC1 [Compound 114, N-(1-butyrylpiperidin-4-yl)-4-(isoquinolin-1-ylamino)naphthalene-1-sulfonamide] | > 10000
CCCC(=O)N1CCC(NS(=O)(=O)c2ccc(Nc3ncnc4ccccc34)c3ccccc23)CC1 [Compound 115, N-(1-butyrylpiperidin-4-yl)-4-(quinazolin-4-ylamino)naphthalene-1-sulfonamide] | 1500
CCCC(=O)N1CCC(NS(=O)(=O)c2ccc(Nc3cc(C)ncn3)c3ccccc23)CC1 [Compound 116, N-(1-butyrylpiperidin-4-yl)-4-((6-methylpyrimidin-4-yl)amino)naphthalene-1-sulfonamide] | > 10000
CCCC(=O)N1CCC(NS(=O)(=O)c2ccc(Nc3nccc(C)n3)c3ccccc23)CC1 [Compound 117, N-(1-butyrylpiperidin-4-yl)-4-((4-methylpyrimidin-2-yl)amino)naphthalene-1-sulfonamide] | 1650
CCCC(=O)N1CCC(NS(=O)(=O)c2ccc(N3C(=O)c4ccccc4C3=O)cc2)CC1 [Compound 118, N-(1-butyrylpiperidin-4-yl)-4-(1,3-dioxoisoindolin-2-yl)benzenesulfonamide] | > 10000

Same assay, conditions: read-out: Tango Assay IC50, Inhibition of CCR8 Tango cell in vitro

Structure (SMILES) | IC50 [nM]
Cc1ccccc1C(=O)Nc1ccc(S(=O)(=O)Nc2ccc3c(c2)C(=O)N(CCN(C)C)CCO3)c2ccccc12 [Compound 96, N-(4-(N-(4-(2-(dimethylamino)ethyl)-5-oxo-2,3,4,5-tetrahydrobenzo[f][1,4]oxazepin-7-yl)sulfamoyl)naphthalen-1-yl)-2-methylbenzamide] | > 10000

From patent US12552753B2, “Methods and compositions for targeting Tregs using CCR8 inhibitors” (Nanjing Immunophage Biomedical Co., Ltd., priority 2020, dated 2026)
